Earlier results, collected in patent publication US20210054334A1, “DIRECTED DIFFERENTIATION OF ASTROCYTES FROM HUMAN PLURIPOTENT STEM CELLS FOR USE IN DRUG SCREENING AND THE TREATMENT OF AMYOTROPHIC LATERAL SCLEROSIS (ALS)” (Kadimastem Ltd., priority 2013, published 2021).

Conditions: ALS

Nc1nc2ccc(OC(F)(F)F)cc2s1 [Rilutek, Riluzole]
extension of lifespan: only extends lifespan by a maximum of three months
